Assay results: patent publication US5512471A, “Process for purifying an α-D-galactosidase isozyme from Coffea beans” (The Curators of the University of Missouri, priority 1992, dated 1996)

Experiments:
[1] = test system: α-D-galactosidase isozyme; experiment: Substrate specificity with PNP and 4-MU conjugates; assay type: biochemical, Coffea canephora; conditions: pH 6.0
Description: Analytical procedures: Protein concentration was quantitated by the method of Bradford using bovine serum albumin (BSA) as a standard (9). […] One unit of activity was defined as 1.0 μmole of substrate hydrolyzed per minute.

[2] = test system: α-D-galactosidase isozyme; experiment: Km determination by varying the substrate concentration; assay type: biochemical, Coffea canephora; conditions: 50 mM Na citrate + 1 mg/ml BSA, pH 6.0; mean, S.D.=0.09, N=3
Experimental: The pH optimum was determined by incubating aliquots of the enzyme in 40 mM Na citrate +40 mN Na H2 PO4 +1 mg/ml BSA+2.5 mM PNP-α-D-galactopyranoside, pH =2.0 to 8.0. The ionic strength optimum was determined by incubating aliquots of the enzyme in 5.0 mM Na citrate +1 mg/ml BSA +2.5 mM PNP α-D-galactopyranoside +0 to 1.0M Na Cl, pH =6.0. The Km for PNP-α-D-galactopyranoside was determined by varying the substrate concentration in 50 mM Na citrate +1 mg/ml BSA, pH =6.0. The native molecular weight of the isozyme was determined by applying a concentrated portion of the enzyme to a 1.5×45 cm Sephacryl S-200 column equilibrated in 25 mM Na citrate +200 mM NaCl, pH=6.0.

[3] = 4-MU substrates, % of activity on 4-MU-α-D-galactopyranoside
[4] = PNP conjugates 2.5 mM, % of activity on PNP-α-D-galactopyranoside

SMILES | RELATIVE ACTIVITY [1, 3] | RELATIVE ACTIVITY [1, 4] | Km [2]
CC(=O)NC1C(O)CC(Oc2ccc3c(C)cc(=O)oc3c2)(C(=O)O)OC1C(O)C(O)CO (stereo not drawn) [4-MU-N-acetyl-α-neuraminic acid] | < 0.01% |  | 
Cc1cc(=O)oc2cc(O[C@H]3O[C@H](CO)[C@H](O)[C@H](O)[C@H]3O)ccc12 [4-MU-α-D-galactopyranoside] | 100.00% |  | 
CC(=O)N[C@H]1[C@@H](Oc2ccc([N+](=O)[O-])cc2)O[C@H](CO)[C@H](O)[C@@H]1O [PNP-N-acetyl-α-D-galactosaminide] |  | < 0.06% | 
CC(=O)N[C@H]1[C@@H](Oc2ccc([N+](=O)[O-])cc2)O[C@H](CO)[C@@H](O)[C@@H]1O [PNP-N-acetyl-α-D-glucosaminide] |  | < 0.06% | 
CC(=O)N[C@H]1[C@H](Oc2ccc([N+](=O)[O-])cc2)O[C@H](CO)[C@H](O)[C@@H]1O [PNP-N-acetyl-β-D-galactosaminide] |  | < 0.06% | 
CC(=O)N[C@H]1[C@H](Oc2ccc([N+](=O)[O-])cc2)O[C@H](CO)[C@@H](O)[C@@H]1O [PNP-N-acetyl-β-D-glucosaminide] |  | < 0.06% | 
O=[N+]([O-])c1ccc(O[C@H]2O[C@H](CO)[C@H](O)[C@H](O)[C@H]2O)cc1 [PNP-α-D-galactopyranoside] |  | 100.00% | 260 µM
O=[N+]([O-])c1ccc(O[C@H]2O[C@H](CO)[C@@H](O)[C@H](O)[C@H]2O)cc1 [PNP-α-D-glucopyranoside] |  | < 0.06% | 
O=[N+]([O-])c1ccc(O[C@@H]2OC[C@H](O)[C@H](O)[C@H]2O)cc1 [PNP-α-L-arabinopyranoside] |  | < 0.06% | 
C[C@@H]1O[C@@H](Oc2ccc([N+](=O)[O-])cc2)[C@@H](O)[C@H](O)[C@@H]1O [PNP-α-L-fucopyranoside] |  | < 0.06% | 
O=[N+]([O-])c1ccc(O[C@@H]2O[C@H](CO)[C@H](O)[C@H](O)[C@H]2O)cc1 [PNP-β-D-galactopyranoside] |  | < 0.06% | 
O=[N+]([O-])c1ccc(O[C@@H]2O[C@H](CO)[C@@H](O)[C@H](O)[C@H]2O)cc1 [PNP-β-D-glucopyranoside] |  | < 0.06% | 
C[C@@H]1O[C@H](Oc2ccc([N+](=O)[O-])cc2)[C@@H](O)[C@H](O)[C@@H]1O [PNP-β-L-fucopyranoside] |  | < 0.06% | 
